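Values below derive from 48-hour exposures of cells grown in 96-well plates, with endpoints linearly interpolated between the two concentrations bracketing the appropriate inhibition level. GI50: concentration for 50% inhibition of growth. TGI: total growth inhibition.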
Legend:
Experiment in all cases: NCI tumour cell line growth inhibition, 48 h
K-562 leukemia = system: K-562 leukemia
NCI/ADR-RES ovarian = system: NCI/ADR-RES ovarian
SF-268 CNS = system: SF-268 CNS
SF-295 CNS = system: SF-295 CNS
SF-539 CNS = system: SF-539 CNS
SK-MEL-2 melanoma = system: SK-MEL-2 melanoma
SN12C renal = system: SN12C renal
SW-620 colon = system: SW-620 colon
U251 CNS = system: U251 CNS
SNB-75 CNS = system: SNB-75 CNS

Row | SMILES | TGI (K-562 leukemia) [µM] | TGI (NCI/ADR-RES ovarian) [µM] | TGI (SF-268 CNS) [µM] | TGI (SF-295 CNS) [µM] | TGI (SF-539 CNS) [µM] | TGI (SK-MEL-2 melanoma) [µM] | TGI (SN12C renal) [µM] | TGI (SW-620 colon) [µM] | TGI (U251 CNS) [µM] | TGI (SNB-75 CNS) [µM] | GI50 (NCI/ADR-RES ovarian) [µM] | GI50 (SF-268 CNS) [µM] | GI50 (SF-295 CNS) [µM] | GI50 (SF-539 CNS) [µM] | GI50 (SK-MEL-2 melanoma) [µM] | GI50 (SN12C renal) [µM] | GI50 (SNB-75 CNS) [µM] | GI50 (SW-620 colon) [µM] | GI50 (U251 CNS) [µM]
1 | O=C1c2ccccc2C(=O)c2c1c1cc(O)ccc1n2Cc1ccc(Cl)cc1Cl | > 100 | 11.7 | 29.7 | 20.1 | 14.7 | 33.9 | 16.3 | > 100 | 12.2 | – | – | – | – | – | – | – | – | – | –
2 | Cc1cccc2ns[s+]c12 | 81.4 | – | > 100 | > 100 | > 100 | – | > 100 | 32.7 | > 100 | > 100 | – | – | – | – | – | – | – | – | –
3 | C[Si](C)(C)C1=C2C(=O)c3ccccc3C(=O)C2=C([Si](C)(C)C)[C@@H]2CCCC[C@H]12 | > 100 | – | – | > 100 | > 100 | > 100 | > 100 | > 100 | > 100 | – | – | – | – | – | – | – | – | – | –
4 | COc1cc(NS(C)(=O)=O)ccc1N1Cc2cnc3ccc4[nH]ccc1c4c23 | > 100 | > 100 | 75.2 | > 100 | – | 64.6 | 66.6 | > 100 | > 100 | – | – | – | – | – | – | – | – | – | –
5 | CCCCCCc1cc2cc(C(=O)Nc3cccc(C(F)(F)F)c3)c(=N)oc2cc1O | – | 7.42 | 19.1 | 14.1 | 3.59 | 5.68 | 3.86 | > 46.1 | 3.5 | 3.01 | – | – | – | – | – | – | – | – | –
6 | Nc1nc(NC(=O)C2=NS(=O)(=O)c3cc(S(N)(=O)=O)c(Cl)cc3N2)n[nH]1 | > 100 | – | > 100 | > 100 | > 100 | – | > 100 | > 100 | > 100 | > 100 | – | – | – | – | – | – | – | – | –
7 | CC1=C2CC3=C(C)C(=O)O[C@H]3C[C@@H](C)[C@@H]2CC1 | > 100 | > 100 | > 100 | > 100 | – | > 100 | – | > 100 | > 100 | > 100 | – | – | – | – | – | – | – | – | –
8 | CCOC(=O)C1(C/C=C\CBr)CCCCCCC1=O (configuration not stated) | – | > 100 | > 100 | > 100 | > 100 | > 100 | > 100 | > 100 | > 100 | > 100 | – | – | – | – | – | – | – | – | –
9 | COC(=O)C(I(OS(=O)(=O)c1ccc(C)cc1)c1ccccc1)=P(c1ccccc1)(c1ccccc1)c1ccccc1 | > 100 | > 100 | 33.4 | 87 | 34.9 | 36.4 | > 100 | – | 40.7 | – | – | – | – | – | – | – | – | – | –
10 | COc1ccc2c(c1)CCC1C2CCC2(C)C1CC[C@@]2(O)CNC(=O)/C=C/c1ccc(O)c(O)c1 (some centres not stated) | – | 5.83 | > 100 | > 100 | 6.75 | 29.7 | 8.84 | > 100 | 4.41 | 7.18 | 2.12 | 2.97 | 3.54 | 2.08 | 5.59 | 2.57 | 2.65 | 4.07 | 1.65
11 | CC(C)(C)OC(=O)N(CCCN)CCCCN(CCCN)C(=O)OC(C)(C)C | > 100 | > 100 | > 100 | > 100 | > 100 | > 100 | – | > 100 | > 100 | > 100 | – | – | – | – | – | – | – | – | –
12 | CCOC(=O)C1C(=O)C=C(c2cc(C)ccc2O)CC1c1cccc(Br)c1 (configuration not stated) | 46.8 | 46.1 | 77.9 | 35.5 | 35.2 | 39.4 | 33.1 | > 100 | 32 | – | – | – | – | – | – | – | – | – | –
13 | COc1cccc2c(NNc3ccc(Cl)cc3)c3ccc([N+](=O)[O-])cc3nc12 | 97.2 | – | 28.1 | 36.1 | 33 | > 100 | 75.3 | > 100 | 31.2 | – | – | – | – | – | – | – | – | – | –
14 | O=C(c1ccccc1)c1cc(-c2ccccc2)c(-c2ccccc2)[nH]c(=O)c1=O | > 100 | > 100 | > 100 | > 100 | > 100 | 57.5 | > 100 | > 100 | > 100 | – | – | – | – | – | – | – | – | – | –
15 | CN1CCN(c2nc3c(c(=O)n(C)c(=O)n3C)n2C)CC1 | > 100 | > 100 | > 100 | > 100 | – | > 100 | > 100 | > 100 | > 100 | > 100 | – | – | – | – | – | – | – | – | –
16 | CC(C)CCC[C@@H](C)[C@H]1CC[C@H]2[C@@H]3CC=C4CC(OCCCCN(O)CCCSC5OC(CO)C(O)C(O)C5O)CC[C@]4(C)[C@H]3CC[C@]12C (some centres not stated) | > 100 | – | > 100 | > 100 | 32.8 | 92.1 | > 100 | 49.4 | 75.1 | > 100 | – | – | – | – | – | – | – | – | –
17 | NC(N)=NS(=O)(=O)c1ccc(NC(=O)c2c3ccccc3nc3ccccc23)cc1 | – | > 100 | > 100 | > 100 | > 100 | > 100 | > 100 | > 100 | > 100 | > 100 | – | – | – | – | – | – | – | – | –
18 | COc1cc2c(oc(=O)c3c4oc([Si](C)(C)C)cc4cc(OC)c23)c2cccc(O)c12 | > 100 | – | > 100 | > 100 | > 100 | > 100 | > 100 | > 100 | > 100 | > 100 | – | – | – | – | – | – | – | – | –
19 | O=S(=O)(CC#CCS(=O)(=O)c1ccccc1)c1ccccc1 | – | > 83 | 12.5 | 43.6 | 6.86 | 19.4 | 12.4 | > 100 | 24.5 | 5.55 | – | – | – | – | – | – | – | – | –
20 | O=C(C(Cl)=C(Nc1ccccc1)Nc1ccccc1)C(Cl)Cl | 86.4 | > 100 | 76.7 | > 100 | > 100 | – | 79.7 | 57 | – | – | – | – | – | – | – | – | – | – | –
21 | CC(C)OP(=O)(OC(C)C)c1ncn(-c2ccc([N+](=O)[O-])cc2)n1 | > 100 | – | > 100 | > 100 | > 100 | > 100 | > 100 | > 100 | > 100 | > 100 | – | – | – | – | – | – | – | – | –
22 | O=C(O)CCCCCNC(=O)CCC(CN(CC(=O)OCc1ccccc1)CC(=O)OCc1ccccc1)N(CC(=O)OCc1ccccc1)CC(=O)OCc1ccccc1 (configuration not stated) | 30.6 | 43.1 | 43.3 | 32.2 | 37.9 | 32 | 36.2 | 45.3 | 46.6 | – | – | – | – | – | – | – | – | – | –

Reference: PubChem BioAssay (NCI)
